# Assay results as given in patent publication US20230339854A1, “Negative Allosteric Modulation of GluN3-Containing N-Methyl-D-Aspartate Receptors” (Emory University, priority 2020, published 2023).
# Target: T1, human GluN1^FA,TL/GluN3A receptors (Homo sapiens, UniProt Q8TCU5)
# T1 construct: Human GluN3A (NP_597702.2) and rat GluN3B (NP_579842.2) were synthesized and subcloned into SP6 plasmids; expressed in transfected cells; host or cells: Xenopus laevis oocytes, cRNA injection (GluN1:GluN3 1:3)
# Assay: Two-electrode voltage-clamp recordings of GluN1^FA,TL/GluN3A receptors in Xenopus oocytes
# Type: cell-based
# Conditions: read-out: hGluN1^FA,TL/hGluN3A (100 × Idrug/Icontrol at 30 μM drug)
# From the text: cDNA encoding human wild-type (WT) GluN1-1a (GenBank accession numbers NP_015566, hereafter GluN1) and rat GluN1-1a (NP_058706.1) were synthesized and subcloned into pGEMHE plasmid; some experiments used the rat splice variant GluN1-4a (NP_001257531.1). Human GluN3A (NP_597702.2) and rat GluN3B (NP_579842.2) were synthesized and subcloned into SP6 plasmids. For most experiments, human GluN1 was co-expressed with human GluN3A, except for mutagenesis experiments where rat GluN1 was co-expressed with human GluN3A. Rat GluN1-4a was always expressed with rat GluN3B.
# Defolliculated Xenopus laevis oocytes (stage V-VI) were obtained from Ecocyte BioScience (Austin, Texas), or prepared from commercially available Xenopus ovaries (Xenopus 1, Dexter, MI) as previously described (Hansen, et al., Mol. Pharmacol., 2013). A Drummond Nanoject II (Broomall, PA) was used to inject oocytes with cRNAs encoding GluN1 and GluN3 at a 1:3 ratio in RNase-free water. The cRNA was diluted as needed to give responses with amplitudes ranging between 200-2000 nA (0.2-10 ng total cRNA). Following cRNA injection, the oocytes were stored at 15-19° C. in Barth's solution that contained (in mM) 88 NaCl, 2.4 NaHCO3, 1 KCl, 0.33 Ca(NO3)2, 0.41 CaCl2), 0.82 MgSO4, and 5 Tris-HCl (pH 7.4 with NaOH), supplemented with 1 μg/ml streptomycin (Invitrogen, Carlsbad, CA) and 100 μg/ml gentamicin (Fisher Scientific, Pittsburgh, PA). Recordings were performed 2-5 days following cRNA microinjection at room temperature (23° C.) using a two-electrode voltage-clamp amplifier (OC725, Warner Instrument, Hamilton, CT). The signal was low-pass filtered at 10-20 Hz (4-pole, −3 dB Bessel) and digitized at the Nyquist rate using PCI-6025E or USB-6212 BNC data acquisition boards (National Instruments, Austin, TX) using EasyOocyte (http://www.easyoocyte.io/). Oocytes were placed in a custom-made chamber and continuously perfused (2.5 ml/min) with oocyte recording solution containing (in mM) 90 NaCl, 1 KCl, 10 HEPES, 0.5-1.0 BaCl2, and 0.01 EDTA (pH 7.4 with NaOH). Solutions were applied by gravity, and solution exchange was controlled through a rotary valve (Hamilton, Reno, NV). Recording electrodes were filled with 0.3-3.0 M KCl, and current responses were recorded at a holding potential of −40 mV.
# Response (%)=(100−minimum)/(1+([concentration]/IC50)^nH)+minimum (2) • where nH is the Hill slope, IC50 is the concentration that produces a half-maximal effect, and minimum is the degree of residual inhibition at a saturating concentration of the negative allosteric modulator.
# The afore-referenced compounds were screened in the same assay as EU1180-438 to determine their effects on hGluN1^FA,TL/hGluN3A receptors. Selected compounds that inhibited by more than 20% at the concentration at which they were initially evaluated (either 10 or 30 μM) were analyzed further, and a dose-response curve was generated to determine their IC50 values.
# T1 sequence (Q8TCU5 24-1115, other chains not shown): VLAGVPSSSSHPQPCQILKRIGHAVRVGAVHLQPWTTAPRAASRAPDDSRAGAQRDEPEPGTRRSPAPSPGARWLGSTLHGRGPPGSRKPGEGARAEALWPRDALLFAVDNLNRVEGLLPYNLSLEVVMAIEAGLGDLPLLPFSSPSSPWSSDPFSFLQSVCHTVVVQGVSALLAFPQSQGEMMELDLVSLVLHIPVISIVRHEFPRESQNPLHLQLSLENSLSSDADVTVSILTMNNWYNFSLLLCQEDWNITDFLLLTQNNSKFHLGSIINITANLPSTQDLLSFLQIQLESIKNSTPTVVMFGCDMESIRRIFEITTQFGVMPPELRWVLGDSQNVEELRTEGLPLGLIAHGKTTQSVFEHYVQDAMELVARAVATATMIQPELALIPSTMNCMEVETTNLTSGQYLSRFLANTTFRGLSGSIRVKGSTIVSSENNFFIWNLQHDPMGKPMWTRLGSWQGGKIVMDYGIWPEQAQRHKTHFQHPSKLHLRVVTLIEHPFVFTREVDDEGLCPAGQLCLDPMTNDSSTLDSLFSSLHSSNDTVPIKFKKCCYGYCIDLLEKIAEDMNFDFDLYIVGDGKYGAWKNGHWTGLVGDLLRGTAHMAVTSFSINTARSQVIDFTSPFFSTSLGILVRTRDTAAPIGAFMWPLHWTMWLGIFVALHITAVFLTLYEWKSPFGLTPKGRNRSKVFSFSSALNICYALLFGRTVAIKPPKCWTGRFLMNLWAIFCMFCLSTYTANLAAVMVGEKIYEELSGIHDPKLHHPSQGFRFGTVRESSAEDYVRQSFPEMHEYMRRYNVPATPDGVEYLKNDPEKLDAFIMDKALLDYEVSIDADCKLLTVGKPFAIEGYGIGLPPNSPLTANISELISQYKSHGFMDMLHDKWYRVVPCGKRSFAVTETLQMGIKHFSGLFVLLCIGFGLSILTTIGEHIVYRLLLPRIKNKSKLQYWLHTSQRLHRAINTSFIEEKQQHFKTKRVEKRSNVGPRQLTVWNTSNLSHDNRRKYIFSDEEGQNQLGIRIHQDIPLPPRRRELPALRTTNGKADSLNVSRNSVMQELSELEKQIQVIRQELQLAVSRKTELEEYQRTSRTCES
row,SMILES,remaining activity at 30 µM
1,"CC(C)Oc1ccc(C(COc2ccc(OC(F)(F)F)cc2)N2Cc3cc(Cl)ccc3C2=O)cc1 (centres unmarked) [EU1180-541, 5-chloro-2-(1-(4-isopropoxyphenyl)-2-(4-(trifluoromethoxy)phenoxy)ethyl)isoindolin-1-one]",100%
2,"CC(C)Oc1ccc(C(COc2ccc(OC(F)(F)F)cc2)N2Cc3ccc(F)cc3C2=O)cc1 (centres unmarked) [EU1180-542, 6-fluoro-2-(1-(4-isopropoxyphenyl)-2-(4-(trifluoromethoxy)phenoxy)ethyl)isoindolin-1-one]",98%
3,"CC(C)Oc1ccc(C(COc2ccc(OC(F)(F)F)cc2)N2Cc3cc(F)ccc3C2=O)cc1 (centres unmarked) [EU1180-544, 5-fluoro-2-(1-(4-isopropoxyphenyl)-2-(4-(trifluoromethoxy)phenoxy)ethyl)isoindolin-1-one]",98%
4,"CC(C)Oc1ccc(C(COc2ccc(OC(F)(F)F)cc2)N2Cc3ccc(Br)cc3C2=O)cc1 (centres unmarked) [EU1180-553, 6-bromo-2-(1-(4-isopropoxyphenyl)-2-(4-(trifluoromethoxy)phenoxy)ethyl)isoindolin-1-one]",101%
5,"CC(C)Oc1ccc(C(COc2ccc(OC(F)(F)F)cc2)N2Cc3cc(Br)ccc3C2=O)cc1 (centres unmarked) [EU1180-554, 5-bromo-2-(1-(4-isopropoxyphenyl)-2-(4-(trifluoromethoxy)phenoxy)ethyl)isoindolin-1-one]",101%
6,"COc1ccc(OCC(c2ccc(OC(C)C)cc2)N2Cc3ccc(C(F)(F)F)cc3C2=O)cc1 (centres unmarked) [EU1180-558, 2-(1-(4-isopropoxyphenyl)-2-(4-methoxyphenoxy)ethyl)-6-(trifluoromethyl)isoindolin-1-one]",98%
7,"COc1ccc(OCC(c2ccc(OC(C)C)cc2)N2Cc3cc(Cl)ccc3C2=O)cc1 (centres unmarked) [EU1180-559, 5-chloro-2-(1-(4-isopropoxyphenyl)-2-(4-methoxyphenoxy)ethyl)isoindolin-1-one]",96%
8,"COc1ccc(OCC(c2ccc(OC(C)C)cc2)N2Cc3cc(F)ccc3C2=O)cc1 (centres unmarked) [EU1180-561, 5-fluoro-2-(1-(4-isopropoxyphenyl)-2-(4-methoxyphenoxy)ethyl)isoindolin-1-one]",88%
9,"COc1ccc(OCC(c2ccc(OC(C)C)cc2)N2Cc3ccc(Br)cc3C2=O)cc1 (centres unmarked) [EU1180-562, 6-bromo-2-(1-(4-isopropoxyphenyl)-2-(4-methoxyphenoxy)ethyl)isoindolin-1-one]",98%
10,"COc1ccc(OCC(c2ccc(OC(C)C)cc2)N2Cc3cc(Br)ccc3C2=O)cc1 (centres unmarked) [EU1180-563, 5-bromo-2-(1-(4-isopropoxyphenyl)-2-(4-methoxyphenoxy)ethyl)isoindolin-1-one]",98%
11,"COc1ccc(OCC(c2ccc(OC(C)C)cc2)N2Cc3ccc(Cl)cc3C2=O)cc1 (centres unmarked) [EU1180-564, 6-chloro-2-(1-(4-isopropoxyphenyl)-2-(4-methoxyphenoxy)ethyl)isoindolin-1-one]",96%
12,"CC(C)Oc1ccc(C(COc2ccc(C(F)(F)F)cc2)N2Cc3ccccc3C2=O)cc1 (centres unmarked) [EU1180-571, 2-(1-(4-isopropoxyphenyl)-2-(4-(trifluoromethyl)phenoxy)ethyl)isoindolin-1-one]",94%
13,"CC(C)Oc1ccc(C(COc2ccc(C(F)(F)F)cc2)N2Cc3ccc(C(F)(F)F)cc3C2=O)cc1 (centres unmarked) [EU1180-572, 2-(1-(4-isopropoxyphenyl)-2-(4-(trifluoromethyl)phenoxy)ethyl)-6-(trifluoromethyl)isoindolin-1-one]",91%
14,"CC(C)Oc1ccc(C(COc2ccc(C(F)(F)F)cc2)N2Cc3ccc(Cl)cc3C2=O)cc1 (centres unmarked) [EU1180-573, 6-chloro-2-(1-(4-isopropoxyphenyl)-2-(4-(trifluoromethyl)phenoxy)ethyl)isoindolin-1-one]",100%
15,"CC(C)Oc1ccc(C(COc2ccc(C(F)(F)F)cc2)N2Cc3cc(Cl)ccc3C2=O)cc1 (centres unmarked) [EU1180-574, 5-chloro-2-(1-(4-isopropoxyphenyl)-2-(4-(trifluoromethyl)phenoxy)ethyl)isoindolin-1-one]",91%
16,"CC(C)Oc1ccc(C(COc2ccc(C(F)(F)F)cc2)N2Cc3ccc(F)cc3C2=O)cc1 (centres unmarked) [EU1180-575, 6-fluoro-2-(1-(4-isopropoxyphenyl)-2-(4-(trifluoromethyl)phenoxy)ethyl)isoindolin-1-one]",76%
17,"CC(C)Oc1ccc(C(COc2ccc(C(F)(F)F)cc2)N2Cc3cc(F)ccc3C2=O)cc1 (centres unmarked) [EU1180-576, 5-fluoro-2-(1-(4-isopropoxyphenyl)-2-(4-(trifluoromethyl)phenoxy)ethyl)isoindolin-1-one]",104%
18,"CC(C)Oc1ccc(C(COc2ccc(C(F)(F)F)cc2)N2Cc3ccc(Br)cc3C2=O)cc1 (centres unmarked) [EU1180-577, 6-bromo-2-(1-(4-isopropoxyphenyl)-2-(4-(trifluoromethyl)phenoxy)ethyl)isoindolin-1-one]",108%
19,"CC(C)Oc1ccc(C(COc2ccc(C(F)(F)F)cc2)N2Cc3cc(Br)ccc3C2=O)cc1 (centres unmarked) [EU1180-578, 5-bromo-2-(1-(4-isopropoxyphenyl)-2-(4-(trifluoromethyl)phenoxy)ethyl)isoindolin-1-one]",118%
20,"CCOc1ccc(OCC(c2ccc(OC(C)C)cc2)N2Cc3ccc(C(F)(F)F)cc3C2=O)cc1 (centres unmarked) [EU1180-587, 2-(2-(4-ethoxyphenoxy)-1-(4-isopropoxyphenyl)ethyl)-6-(trifluoromethyl)isoindolin-1-one]",98%

# Next, values leading:
row,remaining activity at 30 µM,SMILES
1,74%,"COc1ccc(OCC(c2c(F)cc(OC)cc2F)N2Cc3ccccc3C2=O)cc1 (centres unmarked) [EU1180-545, 2-(1-(2,6-Difluoro-4-methoxyphenyl)-2-(4-methoxyphenoxy)ethyl)isoindolin-1-one]"
2,96%,"COc1ccc(OCC(c2c(F)cc(OC)cc2F)N2Cc3ccc(C(F)(F)F)cc3C2=O)cc1 (centres unmarked) [EU1180-546, 2-(1-(2,6-Difluoro-4-methoxyphenyl)-2-(4-methoxyphenoxy)ethyl)-6-(trifluoromethyl)isoindolin-1-one]"
3,98%,"COc1ccc(OCC(c2c(F)cc(OC)cc2F)N2Cc3cc(Cl)ccc3C2=O)cc1 (centres unmarked) [EU1180-547, 5-Chloro-2-(1-(2,6-difluoro-4-methoxyphenyl)-2-(4-methoxyphenoxy)ethyl)isoindolin-1-one]"
4,90%,"COc1ccc(OCC(c2c(F)cc(OC)cc2F)N2Cc3ccc(Cl)cc3C2=O)cc1 (centres unmarked) [EU1180-548, 6-Chloro-2-(1-(2,6-difluoro-4-methoxyphenyl)-2-(4-methoxyphenoxy)ethyl)isoindolin-1-one]"
5,95%,"COc1ccc(OCC(c2c(F)cc(OC)cc2F)N2Cc3cc(Br)ccc3C2=O)cc1 (centres unmarked) [EU1180-549, 5-Bromo-2-(1-(2,6-difluoro-4-methoxyphenyl)-2-(4-methoxyphenoxy)ethyl)isoindolin-1-one]"
6,93%,"COc1ccc(OCC(c2c(F)cc(OC)cc2F)N2Cc3ccc(Br)cc3C2=O)cc1 (centres unmarked) [EU1180-550, 6-Bromo-2-(1-(2,6-difluoro-4-methoxyphenyl)-2-(4-methoxyphenoxy)ethyl)isoindolin-1-one]"
7,92%,"COc1ccc(OCC(c2c(F)cc(OC)cc2F)N2Cc3cc(F)ccc3C2=O)cc1 (centres unmarked) [EU1180-551, 2-(1-(2,6-Difluoro-4-methoxyphenyl)-2-(4-methoxyphenoxy)ethyl)-5-fluoroisoindolin-1-one]"
8,70%,"COc1ccc(OCC(c2c(F)cc(OC)cc2F)N2Cc3ccc(F)cc3C2=O)cc1 (centres unmarked) [EU1180-552, 2-(1-(2,6-Difluoro-4-methoxyphenyl)-2-(4-methoxyphenoxy)ethyl)-6-fluoroisoindolin-1-one]"
9,23%,"COc1ccc(OCC(c2ccc(OC(C)C)cc2)N2Cc3ccc(F)cc3C2=O)cc1 (centres unmarked) [EU1180-560, 6-fluoro-2-(1-(4-isopropoxyphenyl)-2-(4-methoxyphenoxy)ethyl)isoindolin-1-one]"
